Test system: baker's yeast
Test: Bioconversion (biodegradation) assay with baker's yeast
Format: cell-based, Saccharomyces caerevisae (baker's yeast)
Method: Biodegradation assays were carried out according to the following steps: • Step 1. Culture of microorganisms: The microorganisms studied were allowed to grow on a defined medium, in order to increase biomass and develop possible enzymatic activity. • Step 2. Bioconversion assay: The desired amount of 3-MCPD was added to the reactor, and samples were withdrawn at different reaction time to follow the kinetics of biodegradation. • Step 3. Centrifugation: Samples withdrawn from the mixture were centrifuged, the pellet was discarded and the supernatant was used for further treatment and analysis. • Step 4. Extraction of 3-MCPD: 3-MCPD was extracted from the supernatant using Extrelut columns or the Accelerated Solvent Extractor method, and partitioned into ethyl acetate. • Step 5. Preparation of samples for analysis: The organic phase was concentrated with a rotary evaporator, and transferred to a vial, containing an internal standard (3-monochloro-1-propanol (3-MCP) or 3-MCPD-d5). • Step 6. Analysis: Final detection and monitoring of substrate was accomplished by gas chromatography techniques (GC or GC-MS).
Conditioning of baker's yeast: 60g active dry baker's yeast was added to 300 g distilled water under magnetic stirring for 20 min at room temperature. The yeast cream was then centrifuged at 5000 rpm for 15 min, at 4°C (Beckman Model J2-21M Centrifuge) and supernatant was discarded. The pellet was resuspended in equivalent amount (225ml) of distilled water. The obtained yeast cream solution (pH 5.8) was then used for bioconversion assays.
Bioconversion assay: 150 g of the yeast cream solution obtained as described above was placed in a 200 ml reactor vessel equipped with an electrode and a magnetic stirrer (500 rpm). The flask was kept at 28°C using an oil bath equipped with a thermostat (Heidolph MR 3003), and pH was adjusted to the desired pH condition (pH 6.2, pH 7.0, or pH 8.2) with 2M NaOH solution.
[…] The pH was automatically maintained throughout the reaction with regular adjunction of 2M NaOH (Metrohm 691 pH-Meter, equipped with Metrohm Impulsomat 614 and Dosimat 665).
Aliquots of 6 ml were withdrawn from the reaction mixture at different incubation times and centrifuged at 3000 rpm, during 4 min, at 25°C (Beckman Model TJ6 Centrifuge). The pellet was discarded, and the supernatant absorbed onto an Extrelut 3 column or hydromatrix column (placed in the Accelerated Solvent Extractor). 3-MCPD was then partitioned into ethyl acetate, volume was reduced to 2 ml by rotary evaporation, and transferred to a 10 ml graduated tube. 1ml of the internal standard (3-MCP or 3-MCPD-d5) was added to the vial and made up to volume with ethyl acetate. Finally, the extract was dried over anhydrous sodium sulfate, and analyzed for 3-MCPD content by gas chromatography (GC or GC-MS).
The study of 3-MCPD biodegradation by baker's yeast was made by varying different parameters and measuring their influence on the yield and rate of 3-MCPD degradation. The effect of the following parameters were studied: • pH 6.2, 7.0 and 8.2 • presence of glucose in the reaction mixture • substrate stereospecificity: (R)-and (S)-enantiomers • substrate concentration: 800 ppb and 3000 ppm
The results of the biodegradation assays are reported as a percentage of conversion of 3-MCPD as function of reaction time.
Final conversion values were referred to 48h reaction time in order to compare the different biodegradation assays performed. Comparison of bioconversions after 48 h reaction time has been chosen in respect of the enzymatic nature of the reaction studied (many non-enzymatic reactions could occur in a longer time frame).
A control vial (reaction medium with substrate, but without microorganism) was run alongside the reaction. This control permitted the subtraction of the non-enzymatic conversion of 3-MCPD under the experimental conditions tested. […]

[1] = 3000 ppm, pH 8.2, 28°C, without glucose
[2] = 800 ppb, pH 8.2, 28°C, without glucose
[3] = 3000 ppm, pH 6.2, 28°C, without glucose
[4] = 3000 ppm, pH 7.0, 28°C, without glucose

In the case of OC[C@H](O)CCl [(S)-3-MCPD, (S)-(+)-3-monochloro-1,2-propanediol], the “Biodegradation of 3-MCPD with baker's yeast, After 24 h” value (from here on “Biodegradation of 3-MCPD … After 24 h”) [1] is reported as 55% and the “Biodegradation of 3-MCPD with baker's yeast, After 48 h” value (shortened to “Biodegradation of 3-MCPD … After 48 h”) [1] is reported as 85%.
OC[C@@H](O)CCl [(R)-3-MCPD, (R)-(-)-3-monochloro-1,2-propanediol] was tested, and the “Biodegradation of 3-MCPD … After 24 h” value [1] was 20% and the “Biodegradation of 3-MCPD … After 48 h” value [1] was 60%.
In the case of OCC(O)CCl (racemic) [(R,S)-3-MCPD, 3-Monochloro-1,2-propanediol], the “Biodegradation of 3-MCPD … After 24 h” value [2] is reported as 50%, the “Biodegradation of 3-MCPD … After 24 h” value (800 ppb, pH 8.2, 28°C, without glucose, listed as racemic 3-MCPD) is reported as “about 50%” and the “Biodegradation of 3-MCPD … After 48 h” value [2] is reported as 70%. For the same molecule, the highest conversion (2000 ppm, pH 8.2, in the presence of glucose, after 24h reaction) was 60%, the “Biodegradation of 3-MCPD … After 24 h” value [3] was 8% and the “Biodegradation of 3-MCPD … After 48 h” value [3] was 12%. For the same molecule, the “Biodegradation of 3-MCPD … After 24 h” value [4] was 20%, the “Biodegradation of 3-MCPD … After 48 h” value [4] was 35% and the “Biodegradation of 3-MCPD … After 24 h” value [1] was 26%. The “Biodegradation of 3-MCPD … After 48 h” value [1] was 45%, the “Biodegradation of 3-MCPD … After 48 h” value (3000 ppm, pH 8.2, 28°C, without glucose, listed as 3-MCPD) was 45% and the “Biodegradation of 3-MCPD … After 48 h” value (3000 ppm, pH 8.2, 28°C, without glucose, listed as racemic 3-MCPD) was “about 50%”. For the same molecule, the “Biodegradation of 3-MCPD … After 24 h” value (3000 ppm, pH 8.2, + glucose) was 60% and the “Biodegradation of 3-MCPD … After 48 h” value (3000 ppm, pH 8.2, + glucose) was 68%.
